Measurements: patent US4518611A, “2-Furylbutyrolactone modulation of the immune system in mammals” (priority 1983, dated 1985)
Several values for one entry are separate records, joined by “and”; a condition that tells them apart may be missing. Identical values can stand only once. Like-named read-outs stand apart in the source and are kept apart here.

Columns and labels:
[1] = tested on: spleen lymphocytes; conditions: for Lymphocyte Stimulation Index, Control (no mitogen): 100 mg/kg i.p.; for effect on mitogen response (in words): 100 mg/kg
Procedure: The purpose of this assay is to challenge lymphocytes in microcultures with one or more polyclonal mitogens at concentrations that will induce mitogenesis within 72 hours of stimulation.
In the mouse model, spleens are removed from different strains of mice and the spleen cells are teased free and suspended in RPMI-1640 tissue culture medium at a concentration of usually […]. These cells are dispensed at a concentration of 5.0×10^5 cells per microculture well in a 96 well flat bottom 96 well tissue culture plate. All testing of the compounds of this invention or mitogens are done in replicates of 10. The cells are then treated with PHA, Con-A, specific antigens, or buffer only. If in vitro testing is done, varying concentrations of the compounds of this invention or buffer only are added to the cells as well. After treatment with the mitogens and/or compounds of this invention, the cells are incubated for 72 hours. The response of these cells to mitogens and/or the compounds of this invention is assessed using ^14 C-thymidine labeling on the fourth day at a concentration of 0.01 μCi/well. The labeled cells are harvested using a lymphocyte harvestor and placed onto fibrous paper discs. A scintillation cocktail is added to vials containing the discs and the results are obtained using a LKB-liquid scintillation counter (Model 1216/Rackbeta II). The data is expressed as a ratio of the cpm of the mitogen stimulated group to the control (nonmitogen) treated group=lymphocyte stimulation index (LSI).
The lymphocyte stimulation assay may be performed directly on spleen cells obtained from various strains of mice not treated with the compounds of this invention or on lymphocytes obtained from human […]. […] Alternatively, the mice may be treated in vivo with the compounds of this invention by intraperitoneal multi-dose schedules, followed by sacrifice and harvesting spleen lymphocytes. These cells are then tested for their response to polyclonal mitogens or specific antigens used to immunize the mice. In this system however, no additional compound is added to the in vitro lymphocyte stimulation assay system.
Three month old mice of the SJL/J strain, which are T-cell deficient, are treated with i.p. administration of 100, 200, or 400 mg/kg of Cpd. 1 or just buffer for four days. This is followed by a lymphocyte stimulation assay.
An in vivo lymphocyte stimulation assay was performed on SJL/J mice of different ages, either 2, 5, or 10 months. The mice received i.p. injections of either 100 mg/kg of Cpd. 1 or just buffer.

[2] = tested on: L5178Y target cells; experiment: MLTC assay of cytotoxic lymphocyte (CTL) activity, L5178Y target cells; assay type: cell-based, mouse, DBA/2; conditions: for CTL activity (in words): with or without stimulator cells, any E/T ratio
Description: A mixed lymphocyte tumor culture (MLTC) immunoassay, used to determine the cytotoxic lymphocyte (CTL) activity employs lymphocytes from either immunized (sensitized) mice or DBA/2 tumor dormant state animals in various stages of the tumor dormant state (TDS). The assay employs L5178Y target cells labeled with ^51 Chromium and effector cells (sensitized lymphocytes) from the above-mentioned sources. Effector-target cell ratios will vary with different experimental conditions and may or may not include irradiated stimulator L5178Y cells. Results are expressed as % lysis of target cells based on ratio of cpm of test group over cpm of total release (maximum) both of which are corrected for spontaneous release of ^51 Cr. The assay can be performed as an 8 or 18 hour release assay.
Ten days later the resultant tumor nodule, about 1 cm in size, is surgically excised. If the excision was successful, no subcutaneous tumors develop at the site of implantation. […] These mice are considered to be in the tumor dormant state. […]
DBA/2 mice in the early stage of TDS, prior to challenge with viable L5178Y tumor cells, were used to measure the effect of Cpd. 2 on CTL activity. Cpd. 2, 0.1, 1.0, 10 or 100 μg/ml, or just buffer was added in 100 ul volumes to MLTC microculture wells containing washed spleen lymphocytes from DBA/2 mice, effector, and L5178Y target cells at varying ^E /T ratios. The MLTC reaction was performed in the presence or absence of irradiated L5178Y stimulator cells. […]

[3] = tested on: L-1210 leukemia cells; experiment: Treatment of L-1210 leukemia in BDF1 mice (T/C ratios); assay type: in vivo, mouse
Description: Mice of the BDF1 strain are given in i.p. inoculation of 10^6 L-1210 leukemia cells on day 0. Twenty-four hours later, groups of 7 mice each are started on a nine day treatment regimen of various doses of the compounds of this invention. The experiment is continued according to the guidelines provided under the National Cancer Institute protocol for screening new anti-cancer agents and T/C ratios (median or mean survival time of treated groups over median or mean survival time of controls) are calculated. A T/C value ≥1.25 (or 125%) is considered significant anticancer activity.
(§1) Mice of the BDF1 strain, inoculated with L-1210 leukemia cells, are treated for seven days with either 25, 50, 100, 200 or 400 mg/kg of Cpd. 1 or just buffer. The National Cancer Institute protocol for screening new anti-cancer agents is followed and T/C ratios are calculated.
as §1, with “either 100” for “either 25, 50, 100, 200 or 400”, “Cpd. 1, 20 mg/kg of 5-flourouracil (5-FU), a known anti-cancer agent,” for “Cpd. 1”

## Cc1ccc(C2(O)C(=O)OC3C(O)COC32O)o1.Cc1ccc(C2(O)C(=O)OC3C(O)COC32O)o1.O=C1CCC(=O)O1 (stereo not drawn) [Cpd. 1, 2-furylbutyrolactone:succinic anhydride]
[1]; age 2 months
  Lymphocyte Stimulation Index, Control (no mitogen): 2.3
  effect on mitogen response (in words): decreased PHA versus increased Con-A response
[1]; age 5 months
  Lymphocyte Stimulation Index, Control (no mitogen): 1.9
  effect on mitogen response (in words): depressed mitogenesis response to both PHA and Con-A
[1]; age 10 months
  Lymphocyte Stimulation Index, Control (no mitogen): 2.1
  effect on mitogen response (in words): significant stimulation of both the PHA and Con-A mitogenic response
[1]; 400 mg/kg i.p., four days, three month old
  Lymphocyte Stimulation Index, Con-A: 3.30
[2]; 0.001 μg/ml, E/T 10:1, TDS, without stimulator cells
  % Lysis: 3.9%
[2]; 0.01 μg/ml, E/T 10:1, TDS, without stimulator cells
  % Lysis: 3.5%
[2]; 0.01 μg/ml, E/T 100:1, TDS, without stimulator cells
  % Lysis: 26.0%
[2]; 0.1 μg/ml, E/T 10:1, TDS, without stimulator cells
  % Lysis: 3.5%
[2]; 0.1 μg/ml, E/T 30:1, TDS, with stimulator cells
  % Lysis: 51.0%
[2]; 0.1 μg/ml, E/T 100:1, TDS, with stimulator cells
  % Lysis: 79.0%
[2]; 1.0 μg/ml, E/T 10:1, TDS, without stimulator cells
  % Lysis: 4.6%
[2]; 1.0 μg/ml, E/T 30:1, TDS, with stimulator cells
  % Lysis: 46.0%
[2]; 1.0 μg/ml, E/T 30:1, TDS, without stimulator cells
  % Lysis: 20.0%
[2]; 10 μg/ml, E/T 6.25:1, TDS, without stimulator cells
  % Lysis: .7%
[2]; 10 μg/ml, E/T 10:1, TDS, without stimulator cells
  % Lysis: 4.6%
[2]; 10 μg/ml, E/T 12.5:1, TDS, without stimulator cells
  % Lysis: 6.9%
[2]; 10 μg/ml, E/T 25:1, TDS, with stimulator cells
  % Lysis: 72.0%
[2]; 10 μg/ml, E/T 25:1, TDS, without stimulator cells
  % Lysis: 8.1%
[2]; 10 μg/ml, E/T 30:1, TDS, with stimulator cells
  % Lysis: 42.0%
[2]; 100 μg/ml, E/T 6.25:1, TDS, without stimulator cells
  % Lysis: 6.1%
[2]; 100 μg/ml, E/T 10:1, TDS, without stimulator cells
  % Lysis: 8.6%
[2]; 100 μg/ml, E/T 100:1, TDS, without stimulator cells
  % Lysis: 42.0%
[2]; E + D, E/T 10:1, TDS effectors, no stimulators
  % Lysis: 9.0%
[2]; L5178Y target, TDS effectors with stimulator cells
  enhancement of CTL activity (in words): significant specific enhancement of CTL activity of effector cells in the presence of stimulator cells
[2]; N + S + D, E/T 30:1, normal spleen cells + stimulators
  % Lysis: -9.7%
[2]; N + S + D, E/T 100:1, normal spleen cells + stimulators
  % Lysis: -9.5%
[2]; TDS 10 days after challenge
  CTL activity (in words): significant increase in CTL activity
[3]; 25 mg/kg, seven days
  Median Survival Time: 20 days
  T/C: 1.00
[3]; 50 mg/kg, seven days
  Median Survival Time: 21 days
  T/C: 1.05
[3]; 100 mg/kg, seven days
  Median Survival Time: 30 days
  T/C: 1.50 and 1.40
[3]; 100 mg/kg, seven days (Table 25)
  Median Survival Time: 28
[3]; 200 mg/kg, seven days
  Median Survival Time: 30 days
  T/C: 1.50
[3]; 400 mg/kg, seven days
  Median Survival Time: 25 days
  T/C: 1.25

## 2-furylbutyrolactone:succinimide [Cpd. 2]
[2]; 0.1 μg/ml, E/T 12.5:1, pre-challenge TDS, with stimulator cells
  % Lysis: 47.5%
[2]; 0.1 μg/ml, E/T 12.5:1, pre-challenge TDS, without stimulator cells
  % Lysis: 16.5%
[2]; 0.1 μg/ml, E/T 25:1, pre-challenge TDS, with stimulator cells
  % Lysis: 64.0%
[2]; 0.1 μg/ml, E/T 25:1, pre-challenge TDS, without stimulator cells
  % Lysis: 29.5%
[2]; 0.1 μg/ml, E/T 50:1, pre-challenge TDS, with stimulator cells
  % Lysis: 69.5%
[2]; 0.1 μg/ml, E/T 50:1, pre-challenge TDS, without stimulator cells
  % Lysis: 43.5%
[2]; 0.1 μg/ml, E/T 100:1, pre-challenge TDS, with stimulator cells
  % Lysis: 74.5%
[2]; 0.1 μg/ml, E/T 100:1, pre-challenge TDS, without stimulator cells
  % Lysis: 48.0%
[2]; 1 μg/ml, E/T 12.5:1, pre-challenge TDS, with stimulator cells
  % Lysis: 58.0%
[2]; 1 μg/ml, E/T 25:1, pre-challenge TDS, with stimulator cells
  % Lysis: 69.5%
[2]; 1 μg/ml, E/T 50:1, pre-challenge TDS, with stimulator cells
  % Lysis: 72.5%
[2]; 1 μg/ml, E/T 100:1, pre-challenge TDS, with stimulator cells
  % Lysis: 75.5%
[2]; 10 μg/ml, E/T 12.5:1, pre-challenge TDS, with stimulator cells
  % Lysis: 58.5%
[2]; 10 μg/ml, E/T 12.5:1, pre-challenge TDS, without stimulator cells
  % Lysis: 26.5%
[2]; 10 μg/ml, E/T 25:1, pre-challenge TDS, with stimulator cells
  % Lysis: 72.5%
[2]; 10 μg/ml, E/T 25:1, pre-challenge TDS, without stimulator cells
  % Lysis: 40.0%
[2]; 10 μg/ml, E/T 50:1, pre-challenge TDS, with stimulator cells
  % Lysis: 72.5%
[2]; 10 μg/ml, E/T 50:1, pre-challenge TDS, without stimulator cells
  % Lysis: 56.5%
[2]; 10 μg/ml, E/T 100:1, pre-challenge TDS, with stimulator cells
  % Lysis: 73.5%
[2]; 10 μg/ml, E/T 100:1, pre-challenge TDS, without stimulator cells
  % Lysis: 61.5%
[2]; 100 μg/ml, E/T 12.5:1, pre-challenge TDS, with stimulator cells
  % Lysis: 47.0%
[2]; 100 μg/ml, E/T 25:1, pre-challenge TDS, with stimulator cells
  % Lysis: 65.0%
[2]; 100 μg/ml, E/T 50:1, pre-challenge TDS, with stimulator cells
  % Lysis: 73.5%
[2]; 100 μg/ml, E/T 100:1, pre-challenge TDS, with stimulator cells
  % Lysis: 78.5%
[2]; pre-challenge TDS
  CTL activity (in words): increase in CTL activity
